Test: Human HepG2 cell viability assay in 384 well format
Assay type: toxicity, cell-based
Parameters: dose 125 nL, time 70.5 hour; concentration not given beside the values
Details: HepG2 cells, read-out: Inhibition

Row | SMILES | cytotoxicity at 70.5 h [%]
1 | COc1ccc(OC)c(C(O)CN2CCC(N3CCC(C)CC3)CC2)c1 (stereo unspecified) | 2.26
2 | CC(C)c1ccc(/C=C/CC(=O)NC2CCS(=O)(=O)CC2)cc1 | -1.79
3 | CC(C)NC(=O)Nc1ncc(-c2cccnc2)s1 | -4.04
4 | COc1ccc(-c2cccc(CC3(C(=O)O)CCOCC3)c2)cc1 | -4.34
5 | Cc1cc(C)n(-c2nc(C(=O)NCCS(=O)(=O)N3CCCCC3)cs2)n1 | -2.01
6 | Cc1cc(N2CCCC(O)(CN(C)C(=O)CCN)C2)c2cnccc2n1 (stereo unspecified) | 26.9
7 | O=C(C1CC1)N1C[C@@H](F)[C@@H](OCc2nc3cc(F)ccc3[nH]2)C1 | -3.11
8 | CN1CC(=O)N(c2cccc(F)c2)CC12CCN(Cc1ccco1)C2 (stereo unspecified) | -5.08
9 | O=C1N(c2ccsc2)CCC12CCCN(CC1CC1)C2 (stereo unspecified) | -4.66
10 | COCC1c2c(cnn2C)CCN1Cc1ccco1 (stereo unspecified) | -0.607
11 | O=C(CCNc1ccc(Cl)cn1)NCc1ccncc1 | -8.13
12 | COCCCNS(=O)(=O)c1ccc(N2CCCCS2(=O)=O)cc1 | -9.62
13 | CNC(=O)[C@H]1C[C@@H]2CN(Cc3cccc(C)c3)C[C@H]1O2 | -6.34
14 | CCOC(=O)COC1CCN(C(C)=O)CC(=O)N(C)c2ccccc21 (stereo unspecified) | -3.91
15 | O=C(NC[C@H]1OC[C@@H](NCc2ccccn2)[C@@H]1O)c1ccncc1 | -1.84
16 | CCOC1CCN(C(=O)c2ccc(-c3cccc(C)c3)[nH]c2=O)CC1 | -8.75
17 | CC(NC(=O)N1CCC(c2ccccc2)CC1)c1nncn1C (stereo unspecified) | -3.28
18 | CCN1CCC(NN2CCN(C)CC2)CC1 | -4.47
19 | CCN1CCC2(CC1)CC(NC(=O)c1ccnnc1)c1ccccc12 (stereo unspecified) | 7.06
20 | Cn1cc(CN2CC[C@H]3OCC[C@@H](C(=O)Nc4cnccn4)[C@@H]3C2)cn1 | 50.6
21 | COCCCNC(=O)c1cc(OC)c2ccoc2c1 | 22.5

Row | SMILES | cytotoxicity at 70.5 h [%]
22 | Cc1cc(NC(=O)CN2CCCC2Cn2nc(C)nc2C)n(C)n1 (stereo unspecified) | -14.8
23 | O=C1CN(c2ccc(CNC(=O)c3cccnc3O)cc2F)CCN1 | -2.79
24 | Cc1ccc(C(=O)N2CCN(C(=O)Nc3ccccn3)CC2)o1 | 29.1
25 | CN1CCCN(c2nc3c(cnn3C(C)(C)C)c(=O)[nH]2)CC1 | 16.5
26 | CCc1cc(C(=O)N2CCCC(c3cc(=O)nc4n3CCC4)C2)no1 (stereo unspecified) | -6.36
27 | COc1cccc(-n2nnc(C(=O)N3CCN(C)CC3C)c2C)c1 (stereo unspecified) | 56.4
28 | Cn1cc(CN2CC3(CCN(Cc4ccsc4)C3)C2)cn1 | 24.7
29 | O=C(NCc1ccncc1)Nc1cc(C(F)(F)F)c[nH]c1=O | -2.18
30 | Cc1cc(OCC(=O)N2CCCC2c2noc(C)n2)no1 (stereo unspecified) | -13.8
31 | Cc1nc(N2CCC(C)CC2)ncc1-c1cc(O)nc(N2CCCC2)n1 | 1.46
32 | CN(Cc1nnc(C2CCC2)o1)C(C(N)=O)c1cccc(F)c1 (stereo unspecified) | -1.86
33 | COc1ccc(NC(=O)NC(C)c2nc[nH]n2)cc1Cl (stereo unspecified) | -2.57
34 | CN(C)S(=O)(=O)N1CCCC1c1cccc(-n2ccnc2)n1 (stereo unspecified) | -4.96
35 | Cn1ncc2c1CCCC2NCc1ccc(Cl)s1 (stereo unspecified) | 4.18
36 | CCCc1nc(C)c(C(=O)NS(=O)(=O)c2ccc(C#N)cc2)s1 | -5.99
37 | c1ccc2oc(CCCN3CCCC3Cn3cncn3)nc2c1 (stereo unspecified) | -15.6
38 | CNC(=O)c1cccnc1N1CCC(Oc2ccc(F)cc2)CC1 | -14.2
39 | COc1ccc(-n2ncc(C(C)NC3CCOCC3)c2C)cc1 (stereo unspecified) | -1.36
40 | NC(=O)c1ccc(N2CCN(CCCc3cn[nH]c3)CC2)cc1 | -0.688
41 | O=C(CCN1CCOC(C(F)(F)F)C1)NCc1ccc(Cl)cc1 (stereo unspecified) | -0.312
42 | CCn1cnnc1CCNCc1c[nH]nc1-c1ccc(F)cc1 | 5.79

Row | SMILES | cytotoxicity at 70.5 h [%]
43 | O=C1CCC2(CCN(Cc3ccc(F)cc3Cl)CC2)CN1CCO | 12.9
44 | CC(C)(C)OC(=O)N1CCC[C@H](NCC2=CCCOC2)C1 | -9.87
45 | Cc1cc(NC(=O)CN2CCOC(Cn3cccn3)C2)n(C)n1 (stereo unspecified) | 8.66
46 | CC(=O)N1CCN(CC(=O)N2CCN(c3cccc(C)c3)CC2)CC1 | 24.4
47 | O=C1N(c2cccnc2)CCC12CCCN(Cc1ccoc1)C2 (stereo unspecified) | -4.21
48 | Cc1cc(C2CCNCC2)nc(-c2ccsc2)n1 | -8.24
49 | Cc1cccc(C(=O)N2CCn3cc(CNC(=O)CC4CC4)nc3C2)n1 | -4.69
50 | CC(C)(C#N)c1ccccc1CN(CCO)Cc1ccsc1 | -7.26
51 | Cc1cc(C(=O)N(C)C2CCN(C)C2)c2ccc(F)cc2n1 (stereo unspecified) | 23.7
52 | Cc1cccc(C)c1NC(=O)c1cccc(CN2CCCC2C)c1 (stereo unspecified) | 3.17
53 | CN(C1CCCCC1)S(=O)(=O)NC1CCCN(c2ncccn2)C1 (stereo unspecified) | -8.05
54 | c1ccc(C(Cn2cccn2)Nc2cnccn2)cc1 (stereo unspecified) | -12.5
55 | O=C1CC[C@H]2[C@H](CCN2Cc2ccccn2)N1CC1CCOCC1 | -6.68
56 | O=S(=O)(NCC1(c2cccs2)CCCC1)c1cccnc1 | -4.26
57 | c1coc(CN2CCC3(CC2)COCCN(CCN2CCCC2)C3)c1 | -0.522
58 | COC(=O)CSc1nnc2[nH]c(=O)c3c(n12)CCCC3 | -13.8
59 | Cc1nn(C)c2c(NCc3ccc(F)cc3)nc(C3CC3)nc12 | -5.76
60 | O=C(CCn1ccnc1)N1CCCC(n2cncn2)C1 (stereo unspecified) | 10.1
61 | O=C1C(Sc2nc(=O)ccn2C2CC2)CCN1c1ccccc1F (stereo unspecified) | 2.14
62 | Cn1cnc(S(=O)(=O)N2C[C@@H]3CC[C@H](C2)N(Cc2cscn2)C3=O)c1 | -6.52
63 | Cn1cc(C2COC3(CCN(C(=O)Cn4cccn4)CC3)C2)cn1 (stereo unspecified) | -2.75

Row | SMILES | cytotoxicity at 70.5 h [%]
64 | CN(C)c1cc(CNC(=O)c2cnccn2)ccn1 | -8.01
65 | CN(Cc1c(F)cccc1Cl)C(=O)Cn1cnc(C#N)n1 | -7.04
66 | O=C(CC1CC1)N1CCCn2c(nnc2Cn2cccc2)C1 | -4.38
67 | Cc1noc([C@@H]2CCO[C@@H]3CCN(C(=O)Cc4ccsc4)C[C@@H]32)n1 | 11.3
68 | CN(c1ncc(C(=O)NCc2ccccc2)c(N)n1)C1CCCCC1 | 18
69 | COc1ccc(C(=O)NCCCn2ccnc2)c(OC)n1 | 39.9
70 | O=C(c1cccc(F)c1)N1CCOC(c2nc(-c3ncccn3)no2)C1 (stereo unspecified) | -5.4
71 | CC1CCN(C(=O)c2cccc(CN3CCOCC3)c2)CC1 | -5.87
72 | Cc1cc(C)n(Cc2cccc(C(=O)N3CCOCC3(C)C)c2)n1 | -10
73 | Cc1cc(CN2CCN(c3ccc4nncn4n3)C(C)C2)on1 (stereo unspecified) | 20
74 | CN1CCC(N(Cc2ccco2)S(=O)(=O)c2ccc(Br)cc2Cl)CC1 | 1.77
75 | CC(=O)N1[C@H](Cn2cncn2)C[C@@H]2CN(Cc3nccs3)CC[C@@H]21 | 14.9
76 | CCNC(=O)CNC(=O)Nc1c(F)cc(F)cc1-c1ccccc1 | -9.19
77 | COCC(O)CN1CCC(=O)N(CC=C(C)C)Cc2ccccc21 (stereo unspecified) | -6.53
78 | CCS(=O)(=O)N1CCC2(CC(=O)N(c3ccccc3C)C2)C1 (stereo unspecified) | 21.9
79 | CNC(=O)C1CCCN1C(=O)NCCCc1cccc(F)c1 (stereo unspecified) | 1.01
80 | Cc1ccc(S(=O)(=O)NCc2[nH]ncc2Br)cc1C | -8.92
81 | CN(C)CC1(O)CCCN(c2noc(-c3ccccc3)n2)CC1 (stereo unspecified) | 6.79
